System: 616215-338-R-J1-PDC tumor spheroids, viability
Assay: Anticancer human tumor 616215-338-R-J1-PDC patient-derived colon adenocarcinoma cell line growth inhibition [GQUAD]
Details: spheroids with HUVEC and MSC; for IC50: curve of first compound; for viability, T/C: stronger effect = lower value
Text: DNA G-quadruplex Stabilizer Agents in Combinations in Complex Spheroids
A high-throughput screen of multi-cell type tumor spheroids was designed to identify active combinations of DNA G-quadruplex stabilizer agents and targeted small molecules. Complex spheroids include a stromal component modeled by human endothelial cells (HUVEC) and fibroblasts modeled by human mesenchymal stem cells (MSCs). The concentration ranges selected for each drug and investigational agent were based upon clinically achievable concentrations if the clinical Cmax of the agent was known.
Compounds. The drugs and investigational agents: pidnarulex (CX-5461; NSC782164), APTO-253 (NSC789042), BRACO-19 (NSC847499), peposertib (NSC802822), ceralasertib (NSC780249), elimusertib (NSC800525), camonsertib (NSC841442), AZD-1390 (NSC803789), olaparib (NSC753686), talazoparib (NSC767125), ART-558 (NSC835418), sotorasib (NSC818433), MRTX-1133 (NSC836407), SN-38 (NSC673596), topotecan (NSC609699), etoposide (NSC141540), doxorubicin (NSC123127), gemcitabine (NSC613327), 5-fluorouracil (NSC19893), paclitaxel (NSC125973), vemurafenib (NSC761431), panobinostat (NSC761190), R-306465 (JNJ-16241199; NSC773264), adavosertib (NSC754352), TP-3654 (NSC805149), carboplatin (NSC241240), KSQ-4279 (NSC840948), and staurosporine (NSC755774) were obtained from the National Cancer Institute (NCI) Developmental Therapeutics Program Chemical Repository (34). The FDA-approved anticancer drug set is available from the NCI Developmental Therapeutics Program. […] The stock solutions were prepared in dimethyl sulfoxide (DMSO, Sigma-Aldrich, St. Louis, MO, cat. D2650) at 800-fold the tested concentration and stored at -70 degrees C prior to their use. All drugs and investigational agents were tested over a range starting from a high concentration at or near the clinical Cmax and decreasing in half-log increments. If the clinical Cmax for an agent had not been determined, the highest concentration tested was 10 microM.
2.3 Cell Culture. All cells were maintained in an incubator at 37 degrees C and 5% CO2 with 95% humidity. The PDC lines were cultured according to standard operating procedures established by the NCI PDMR. All PDCs were thawed and cultured in Matrigel-coated flasks prepared with a working solution of 1X Ham's F-12 nutrient mix, without supplementation (Invitrogen, cat. 11765054), 100 U/mL penicillin-streptomycin (Invitrogen, cat. 15140122), and 2.5% Matrigel (Corning Inc., cat. 354248) for the first three passages. The 857933-349-R-J2-PDC line was cultured in 6C/Colon 1B media, which includes advanced DMEM/F-12 (Thermo Fisher Scientific, cat. 12634028), 10 mM HEPES (Thermo Fisher Scientific, cat. 15630080), 1X GlutaMAX supplement (Thermo Fisher Scientific, cat. 35050061), 0.1 mg/mL primocin (InvivoGen, cat. ant-pm-2), 10% defined fetal bovine serum, heat inactivated (HyClone Laboratories Inc., cat. SH30070.03HI), 50% L-WRN conditioned media (ATCC, cat. CRL-3276), 1.25 mM N-Acetyl-L-cysteine (Sigma-Aldrich, cat. A9165), 10 mM nicotinamide (Sigma-Aldrich, cat. N0636), 1X B-27 supplement (Thermo Fisher Scientific, cat. 17504044), 1X N-2 supplement (Thermo Fisher Scientific, cat. 17502048), 10 microM Y-27632 dihydrochloride (Tocris Bioscience, cat. 1254), and 50 ng/mL human EGF recombinant protein (Thermo Fisher Scientific, cat. PHG0311). The 485176-168-R4-J1-PDC line was cultured in Panc media, which includes all 6C/Colon 1B media components plus 100 ng/mL human FGF-10 (Thermo Fisher Scientific, cat. 100-26), 500 nM SB-431542 (Selleckchem, cat. S1067), and gastrin (Tocris, cat. 3006).
[…]
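Also: spheroids exposed to agents for 7 days before readout.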
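For viability, T/C in this document: percent viability relative to DMSO vehicle control wells taken as 100%.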

**Q.** Which IC50 (second compound 0.0316 µM) does the source give for `Cc1[nH]c2ccccc2c1CCNCc1ccc(/C=C/C(=O)NO)cc1` + Cc1cnc(CNC(=O)c2c(=O)c3ccc(N4CCCN(C)CC4)nc3n3c2sc2ccccc23)cn1 here?
**A.** Its IC50 is 83.5 nM.

**Q.** And the IC50 (second compound 0.1 µM)?
**A.** The IC50 was 110 nM.

**Q.** And the IC50 (second compound 0.316 µM)?
**A.** The IC50 was less than 0.999 nM.

**Q.** And the IC50 (second compound 1 µM)?
**A.** Its IC50 is less than 0.999 nM.

**Q.** And the IC50 (second compound 3.16 µM)?
**A.** The IC50 was less than 0.999 nM.

**Q.** And the IC50 (second compound 10 µM)?
**A.** Its IC50 is less than 0.999 nM.

**Q.** And the viability, T/C (second compound 0.0316 µM, first compound 0.000999 µM)?
**A.** The viability, T/C was 98.6%.

**Q.** And the viability, T/C (second compound 0.0316 µM, first compound 0.00316 µM)?
**A.** Its viability, T/C is 99.3%.

**Q.** What about the viability, T/C (second compound 0.0316 µM, first compound 0.00999 µM) of the same molecule?
**A.** The viability, T/C was 101%.

**Q.** What about the viability, T/C (second compound 0.0316 µM, first compound 0.0316 µM) of the same molecule?
**A.** The viability, T/C was 105%.

**Q.** And the viability, T/C (second compound 0.0316 µM, first compound 0.0999 µM)?
**A.** The viability, T/C was 40.5%.

**Q.** What about the viability, T/C (second compound 0.0316 µM, first compound 0.316 µM) of the same molecule?
**A.** The viability, T/C was 24.4%.

**Q.** What about the viability, T/C (second compound 0.1 µM, first compound 0.000999 µM) of the same molecule?
**A.** Its viability, T/C is 59.6%.

**Q.** What about the viability, T/C (second compound 0.1 µM, first compound 0.00316 µM) of the same molecule?
**A.** Its viability, T/C is 90%.

**Q.** What about the viability, T/C (second compound 0.1 µM, first compound 0.00999 µM) of the same molecule?
**A.** The viability, T/C was 60.8%.

**Q.** And the viability, T/C (second compound 0.1 µM, first compound 0.0316 µM)?
**A.** The viability, T/C was 66.6%.

**Q.** And the viability, T/C (second compound 0.1 µM, first compound 0.0999 µM)?
**A.** The viability, T/C was 54.4%.

**Q.** And the viability, T/C (second compound 0.1 µM, first compound 0.316 µM)?
**A.** The viability, T/C was 6.92%.

**Q.** And the viability, T/C (second compound 0.316 µM, first compound 0.000999 µM)?
**A.** Its viability, T/C is 40.8%.

**Q.** And the viability, T/C (second compound 0.316 µM, first compound 0.00316 µM)?
**A.** The viability, T/C was 38.2%.

**Q.** What about the viability, T/C (second compound 0.316 µM, first compound 0.00999 µM) of the same molecule?
**A.** The viability, T/C was 38.2%.

**Q.** And the viability, T/C (second compound 0.316 µM, first compound 0.0316 µM)?
**A.** Its viability, T/C is 47.9%.

**Q.** What about the viability, T/C (second compound 0.316 µM, first compound 0.0999 µM) of the same molecule?
**A.** Its viability, T/C is 39.1%.

**Q.** And the viability, T/C (second compound 0.316 µM, first compound 0.316 µM)?
**A.** The viability, T/C was 0.77%.

**Q.** And the viability, T/C (second compound 1 µM, first compound 0.000999 µM)?
**A.** Its viability, T/C is 36.5%.

**Q.** And the viability, T/C (second compound 1 µM, first compound 0.00316 µM)?
**A.** Its viability, T/C is 23.8%.

**Q.** What about the viability, T/C (second compound 1 µM, first compound 0.00999 µM) of the same molecule?
**A.** The viability, T/C was 28.2%.

**Q.** And the viability, T/C (second compound 1 µM, first compound 0.0316 µM)?
**A.** The viability, T/C was 23.2%.

**Q.** What about the viability, T/C (second compound 1 µM, first compound 0.0999 µM) of the same molecule?
**A.** Its viability, T/C is 13.7%.

**Q.** What about the viability, T/C (second compound 1 µM, first compound 0.316 µM) of the same molecule?
**A.** The viability, T/C was 0.06%.

**Q.** And the viability, T/C (second compound 3.16 µM, first compound 0.000999 µM)?
**A.** The viability, T/C was 27.9%.

**Q.** And the viability, T/C (second compound 3.16 µM, first compound 0.00316 µM)?
**A.** Its viability, T/C is 21.8%.

**Q.** And the viability, T/C (second compound 3.16 µM, first compound 0.00999 µM)?
**A.** Its viability, T/C is 24.9%.

**Q.** What about the viability, T/C (second compound 3.16 µM, first compound 0.0316 µM) of the same molecule?
**A.** Its viability, T/C is 26.6%.

**Q.** And the viability, T/C (second compound 3.16 µM, first compound 0.0999 µM)?
**A.** The viability, T/C was 0.75%.

**Q.** What about the viability, T/C (second compound 3.16 µM, first compound 0.316 µM) of the same molecule?
**A.** The viability, T/C was 0.11%.

**Q.** What about the viability, T/C (second compound 10 µM, first compound 0.000999 µM) of the same molecule?
**A.** The viability, T/C was 24.7%.

**Q.** What about the viability, T/C (second compound 10 µM, first compound 0.00316 µM) of the same molecule?
**A.** Its viability, T/C is 34.2%.

**Q.** And the viability, T/C (second compound 10 µM, first compound 0.00999 µM)?
**A.** Its viability, T/C is 15.5%.

**Q.** And the viability, T/C (second compound 10 µM, first compound 0.0316 µM)?
**A.** Its viability, T/C is 17.7%.

**Q.** And the viability, T/C (second compound 10 µM, first compound 0.0999 µM)?
**A.** The viability, T/C was 0.25%.

**Q.** And the viability, T/C (second compound 10 µM, first compound 0.316 µM)?
**A.** The viability, T/C was 0.21%.
